Experimental data taken from ChEMBL document CHEMBL5728354, “1,2-dihydro-3H-pyrazolo[3,4-d]pyrimidin-3-one derivative as Wee1 inhibitor” (2021).

Target: Wee1-like protein kinase (Homo sapiens, UniProt P30291)
Assay: In Vitro Enzymatic Inhibitory Activity Assay: Experimental Reagents:Basic reaction buffer: 20 mM hydroxyethylpiperazine ethanesulfuric acid (pH 7.5), 10 mM magnesium chloride, 1 mM EGTA, 0.02% Brij35, 0.02 mg/mL bovine serum albumin, 0.1 mM Na3VO4, 2 mM DTT, 1% DMSOEnzyme: Wee-1 concentration is 150 nMMatrix: MBP concentration is 20 μMCompound Treatment:The tested compound was formulated into a 5 mM solution with 100% DMSO, and a 10 points 3-fold gradient dilution was performed with DMSO through an automated pipetting station epMotion 5070.Experiment Procedure:1. Fresh matrix configuration reaction buffer was prepared;2. The Wee-1 was added into the matrix solution and shaked gently;3. DMSO solution of the compound were added into the kinase reaction mixture using an acoustic technique (Echo 550; nanoliter range) and incubated for 20 minutes at room temperature;4. 33P-ATP (specific activity, 10 μCi/μL) was added into the reaction mixture to stimulate the reaction;5. Incubated for 2 hours at room temperature;6. Kinase activity was detected by filter-binding method.

Chain of Wee1-like protein kinase (P30291 whole entry): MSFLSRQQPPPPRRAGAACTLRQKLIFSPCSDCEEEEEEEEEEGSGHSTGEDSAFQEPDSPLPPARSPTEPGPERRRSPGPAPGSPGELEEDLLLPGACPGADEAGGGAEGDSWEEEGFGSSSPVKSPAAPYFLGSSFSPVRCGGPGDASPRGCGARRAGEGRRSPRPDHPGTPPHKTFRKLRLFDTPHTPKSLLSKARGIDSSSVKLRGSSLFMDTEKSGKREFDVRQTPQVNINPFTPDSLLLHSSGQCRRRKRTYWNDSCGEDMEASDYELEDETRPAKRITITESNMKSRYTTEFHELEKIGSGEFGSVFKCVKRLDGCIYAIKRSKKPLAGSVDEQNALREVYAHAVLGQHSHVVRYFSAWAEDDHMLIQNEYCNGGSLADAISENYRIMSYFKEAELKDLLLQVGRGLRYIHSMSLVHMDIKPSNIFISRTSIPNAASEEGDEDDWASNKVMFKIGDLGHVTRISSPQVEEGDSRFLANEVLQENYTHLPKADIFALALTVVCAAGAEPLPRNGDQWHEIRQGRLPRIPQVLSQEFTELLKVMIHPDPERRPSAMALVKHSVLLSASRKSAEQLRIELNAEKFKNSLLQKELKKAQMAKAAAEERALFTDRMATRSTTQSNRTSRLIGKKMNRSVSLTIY

Compound | IC50 [nM]
C=CCn1c(=O)c2cnc(Nc3ccc(N4CCC5(CCN(C)CC5)CC4)cc3)nc2n1-c1cnccn1 | 90.4
C=CCn1c(=O)c2cnc(Nc3ccc(N4CCC5(CCN(C)CC5)CC4)cn3)nc2n1-c1cccc(C(C)(C)O)n1 | 64.6
C=CCn1c2nc(Nc3ccc(N4CCC5(CCN(C)CC5)CC4)cc3)ncc2c(=O)n1-c1ccccc1Cl | 620
